Patent US8557816B2, “Aurora kinase modulators and method of use” (Amgen Inc., priority 2007, dated 2013)

Experiments:
AuroraA-TPX2 = target: T1, AuroraA-TPX2 (Homo sapiens, UniProt O14965); assay: AuroraA-TPX2 Homogeneous Time Resolved Fluorescent (HTRF) kinase assay; format: biochemical; conditions: average; read-out: AurA_IC50_IP (uM Avg)
T1 construct: 20 μL of AuroraA-TPX2 KD GST for a final volume of about 41 μL; GST
T1 sequence (O14965 133-383 limits assumed): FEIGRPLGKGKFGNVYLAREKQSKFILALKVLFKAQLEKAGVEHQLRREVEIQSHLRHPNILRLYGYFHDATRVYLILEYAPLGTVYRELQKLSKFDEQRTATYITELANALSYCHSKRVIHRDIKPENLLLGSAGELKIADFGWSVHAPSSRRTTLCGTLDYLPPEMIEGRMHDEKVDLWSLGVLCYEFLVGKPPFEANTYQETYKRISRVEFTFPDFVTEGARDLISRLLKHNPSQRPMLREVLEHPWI
T1 sequence (Q9ULW0 1-43 partner limits assumed): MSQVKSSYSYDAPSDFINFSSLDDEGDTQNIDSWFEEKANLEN
In short: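 HTRF read-out (Eu 615 nm to APC 655 nm) of phosphorylated biotin-PLK, detected with 0.02 nM europium anti-phosphoPLK antibody and 0.0005 mg/mL SA-APC after overnight equilibration.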

AuroraB = target: T2, AuroraB (Homo sapiens, UniProt Q96GD4); assay: AuroraB Homogeneous Time Resolved Fluorescent (HTRF) kinase assay; format: biochemical; conditions: average; read-out: AurB_IC50_IP (uM Avg)
T2 construct: 20 μL of AuroraB FL H is for a final volume of 41 μL; His
In short: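 Read-out is time-resolved FRET between europium anti-phospho-H3 antibody and streptavidin-APC, added in EDTA buffer to stop the reaction and equilibrated about 60 min (ex 320, em 615 and 655 nm). Preceding reaction: ~90 min, full-length enzyme, ATP, 0.1 μM biotin-Histone H3 substrate, Mg/Mn HEPES buffer pH 7.5.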

T2 sequence (Q96GD4 whole entry): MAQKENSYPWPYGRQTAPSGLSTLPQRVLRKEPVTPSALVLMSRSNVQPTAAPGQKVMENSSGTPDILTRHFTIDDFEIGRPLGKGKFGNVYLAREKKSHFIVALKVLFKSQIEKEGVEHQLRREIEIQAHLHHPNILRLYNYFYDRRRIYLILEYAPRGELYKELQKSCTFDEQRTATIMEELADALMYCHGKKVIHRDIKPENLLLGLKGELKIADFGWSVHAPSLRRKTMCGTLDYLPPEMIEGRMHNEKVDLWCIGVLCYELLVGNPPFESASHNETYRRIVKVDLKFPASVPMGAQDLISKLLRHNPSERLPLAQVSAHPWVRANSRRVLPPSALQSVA

Row | IC50 (AuroraA-TPX2) | IC50 (AuroraB) | SMILES
1 | 0.057 µM | 0.023 µM | COc1ccc2nccc(Sc3ccc(Nc4nnc(-c5ccc(Cl)cc5)c5ccccc45)cc3)c2n1 [compound 348, 4-(4-chlorophenyl)-N-(4-(6-methoxy-1,5-naphthyridin-4-ylthio)phenyl)phthalazin-1-amine]
2 | 0.142 µM | 0.046 µM | Cc1cc2nccc(Sc3ccc(Nc4nnc(-c5ccc(C)c(N)c5)c5ccccc45)cc3)c2o1 [compound 492]
3 | 0.035 µM | 0.011 µM | c1cnc2c(Sc3ccc(Nc4nnc(-c5ccc6occc6c5)c5ccccc45)cc3)ccnc2c1 [compound 446]
4 | 0.335 µM | 0.02 µM | COc1cnc2c(Sc3ccc(Nc4nncc5ccccc45)cc3)ccnc2c1 [compound 547, N-(4-((7-methoxy-1,5-naphthyridin-4-yl)sulfanyl)phenyl)-1-phthalazinamine]
5 | 0.35 µM | 0.009 µM | Clc1ccc(-c2nnc(Nc3ccc(Oc4ncnc5[nH]ccc45)cc3)c3ccccc23)cc1 [compound 290, 4-(4-chlorophenyl)-N-(4-(7H-pyrrolo[2,3-d]pyrimidin-4-yloxy)phenyl)-1-phthalazinamine]
6 | 0.028 µM | 0.003 µM | COc1cccc(-c2nnc(Nc3ccc(Oc4ccnc5cc(C#N)ccc45)cc3)c3ccccc23)n1 [compound 102, 4-((4-((4-(6-(methyloxy)-2-pyridinyl)-1-phthalazinyl)amino)phenyl)oxy)-7-quinolinecarbonitrile]
7 | 0.072 µM | 0.012 µM | COCCOc1nnc(Nc2ccc(Sc3ccnc4cc(OC)cnc34)cc2)c2ccccc12 [compound 515]
8 | 0.028 µM | 0.008 µM | COc1cnc2c(Sc3ccc(Nc4nnc(-c5ccc(OC)nc5)c5ccccc45)cc3)ccnc2c1 [compound 583]
9 | 0.047 µM | 0.003 µM | Clc1ccc(-c2nnc(Nc3ccc(Oc4ccnc5ccncc45)cc3)c3ccccc23)cc1 [compound 423]
10 | 0.023 µM | 0.006 µM | COc1cnc2c(Oc3ccc(Nc4nnc(-c5ccc6c(c5)OCCO6)c5ccccc45)cc3)ccnc2c1 [compound 166, 4-(2,3-dihydro-1,4-benzodioxin-6-yl)-N-(4-((7-(methyloxy)-1,5-naphthyridin-4-yl)oxy)phenyl)-1-phthalazinamine]
11 | 0.061 µM | 0.02 µM | COc1cnc2c(Oc3ccc(Nc4ncc(-c5ccccc5)c5ccccc45)cc3)ccnc2c1 [compound 144, N-(4-((7-(methyloxy)-1,5-naphthyridin-4-yl)oxy)phenyl)-4-phenyl-1-isoquinolinamine]
12 | 0.009 µM | 0.005 µM | COc1cnc2c(Sc3ccc(Nc4nnc(N5CCN6CCCC[C@@H]6C5)c5ccccc45)cc3)ccnc2c1 [compound 584]
13 | 0.072 µM | 0.015 µM | COc1cnc2c(Sc3ccc(Nc4nnc(-c5cccc(C)n5)c5ccccc45)cc3)ccnc2c1 [compound 420]
14 | 0.064 µM | 0.099 µM | Cc1csc(-c2nnc(Nc3ccc(Sc4ccnc5ccn(C(C)C)c45)cc3)c3ccccc23)c1 [compound 472, N-(4-((1-(1-methylethyl)-1H-pyrrolo[3,2-b]pyridin-7-yl)thio)phenyl)-4-(4-methyl-2-thienyl)-1-phthalazinamine]
15 | 0.062 µM | 0.015 µM | N#Cc1cc2nccc(Sc3ccc(Nc4nnc(-c5ccc6c(c5)OCO6)c5ccccc45)cc3)c2s1 [compound 457]
16 | 0.171 µM | 0.007 µM | COc1cnc2c(Oc3ccc(Nc4nnc(-c5ccc(C#N)cc5)c5ccccc45)cc3)ccnc2c1 [compound 181, 4-(4-((4-((7-(methyloxy)-1,5-naphthyridin-4-yl)oxy)phenyl)amino)-1-phthalazinyl)benzonitrile]
17 | 0.085 µM | 0.007 µM | COc1cnc2c(Oc3ccc(Nc4nnc(-c5ccc(F)c(F)c5)c5ccccc45)cc3)ccnc2c1 [compound 214, 4-(3,4-difluorophenyl)-N-(4-((7-(methyloxy)-1,5-naphthyridin-4-yl)oxy)phenyl)-1-phthalazinamine]
18 | 0.027 µM | 0.003 µM | COc1cnc2c(Oc3ccc(Nc4nnc(-c5ccccc5)c5ccsc45)cc3)ccnc2c1 [compound 218, N-(4-((7-(methyloxy)-1,5-naphthyridin-4-yl)oxy)phenyl)-4-phenylthieno[2,3-d]pyridazin-7-amine]
19 | 0.112 µM | 0.067 µM | CCc1cc(N2CC[C@H]3CCCC[C@@H]3C2)nnc1Nc1ccc(Oc2ccnc3cc(OC)cnc23)cc1 [compound 320, 4-ethyl-N-(4-((7-(methyloxy)-1,5-naphthyridin-4-yl)oxy)phenyl)-6-((4aR,8aS)-octahydro-2(1H)-isoquinolinyl)-3-pyridazinamine]
20 | 0.042 µM | 0.002 µM | COc1cc2nccc(Nc3ccc(Nc4nnc(-c5ccccc5)c5ccccc45)cc3)c2cn1 [compound 124, N-(7-(methyloxy)-1,6-naphthyridin-4-yl)-N′-(4-phenyl-1-phthalazinyl)-1,4-benzenediamine]
21 | 0.008 µM | 0.003 µM | N#Cc1cc2nccc(Sc3ccc(Nc4nnc(-c5ccc(Cl)cc5)c5ccccc45)cc3)c2s1 [compound 351, 7-(4-(4-(4-chlorophenyl)phthalazin-1-ylamino)phenylthio)thieno[3,2-b]pyridine-2-carbonitrile]
22 | 0.022 µM | 0.003 µM | Cc1ccc(-c2nnc(Nc3ccc(Oc4ccnc5cc(C#N)ccc45)cc3)c3ccccc23)nc1 [compound 122, 4-((4-((4-(5-methyl-2-pyridinyl)-1-phthalazinyl)amino)phenyl)oxy)-7-quinolinecarbonitrile]
23 | 0.052 µM | 0.005 µM | COc1cnc2c(Oc3ccc(Nc4nnc(-c5ccc(F)nc5)c5ccccc45)cc3)ccnc2c1 [compound 190, 4-(6-fluoro-3-pyridinyl)-N-(4-((7-(methyloxy)-1,5-naphthyridin-4-yl)oxy)phenyl)-1-phthalazinamine]
24 | 0.176 µM | 0.02 µM | COc1ccc2c(Cc3ccc(Nc4nnc(-c5ccccc5)c5ccccc45)cc3)ccnc2c1 [compound 319, N-(4-((7-(methyloxy)-4-quinolinyl)methyl)phenyl)-4-phenyl-1-phthalazinamine]
25 | 0.017 µM | 0.003 µM | COc1cnc2c(Oc3ccc(Nc4nnc(-c5ccc6cc[nH]c6c5)c5ccccc45)cc3)ccnc2c1 [compound 206, 4-(1H-indol-6-yl)-N-(4-(7-methoxy-1,5-naphthyridin-4-yloxy)phenyl)phthalazin-1-amine]
26 | 0.132 µM | 0.015 µM | COc1cc2ncnc(Oc3ccc(Nc4nnc(-c5cc(C)ccn5)c5ccccc45)cc3)c2cc1OC [compound 123, N-(4-((6,7-bis(methyloxy)-4-quinazolinyl)oxy)phenyl)-4-(4-methyl-2-pyridinyl)-1-phthalazinamine]
27 | 0.094 µM | 0.003 µM | Clc1ccc(-c2nnc(Nc3ccc(Oc4ccnc5ccsc45)cc3)c3ccccc23)cc1 [compound 250, 4-(4-chlorophenyl)-N-(4-(thieno[3,2-b]pyridin-7-yloxy)phenyl)-1-phthalazinamine]
28 | 0.022 µM | 0.005 µM | COc1cnc2c(Oc3ccc(Nc4nnc(N5CCCCC5)c5ccccc45)cc3)ccnc2c1 [compound 151, N-(4-((7-(methyloxy)-1,5-naphthyridin-4-yl)oxy)phenyl)-4-(1-piperidinyl)-1-phthalazinamine]
